This test addresses T1, F508delCFTR (Homo sapiens, UniProt P13569, DEL508-508).
T1 construct: expressed in transfected cells; host or cells: CFBE41o- (human lung derived epithelial cell line), doxycycline-inducible expression
In words: Cell Surface Expression-Horse Radish Peroxidase (CSE-HRP) assay. The test is classed as cell-based. The conditions noted are these: CFBE41o-F508delCFTR-HRP cells; for Maximum % activity (with co-corrector): with co-corrector (2 μM); for Maximum % activity (with co-corrector) / Maximum % activity (without co-corrector): normalized to on-plate positive control, highest concentration 20 μM. In a few lines: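 Surface F508delCFTR-HRP was read by luminol luminescence after 18–24 h compound exposure at 33 °C, without or with 2 μM co-corrector. Doses were eight 3-fold steps from 20 μM, in doxycycline-induced (0.5 μg/mL, 72 h) CFBE41o- cells. % activity was scaled to the on-plate 2 μM positive control minus DMSO; EC50 came from a variable-slope sigmoid fit.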

Where [1] appears, read: test compound without co-corrector, 18-24 hours at 33° C., read-out: EC50 (without co-corrector).
Where [2] appears, read: with co-corrector (2 μM of 3-[(2R,4R)-4-({[1-(2,2-difluoro-1,3-benzodioxol-5-yl)cyclopropyl]carbonyl}amino)-7-methoxy-3,4-dihydro-2H-chromen-2-yl]benzoic acid), read-out: EC50 (with co-corrector).

The values that follow come from patent US10399940B2, “Substituted pyrrolidines and methods of use” (AbbVie S.à.r.l., priority 2016, dated 2019).

Each structure is given as a SMILES string. pEC50: −log10 of the molar value. Like-named read-outs stand apart in the source and are kept apart here. Bounds are passed on as bounds.

Usually pEC50 stands for −log10 of the EC50, conventionally taken in molar units.

T1 sequence (P13569 with tags, fused parts or gaps DEL508-508): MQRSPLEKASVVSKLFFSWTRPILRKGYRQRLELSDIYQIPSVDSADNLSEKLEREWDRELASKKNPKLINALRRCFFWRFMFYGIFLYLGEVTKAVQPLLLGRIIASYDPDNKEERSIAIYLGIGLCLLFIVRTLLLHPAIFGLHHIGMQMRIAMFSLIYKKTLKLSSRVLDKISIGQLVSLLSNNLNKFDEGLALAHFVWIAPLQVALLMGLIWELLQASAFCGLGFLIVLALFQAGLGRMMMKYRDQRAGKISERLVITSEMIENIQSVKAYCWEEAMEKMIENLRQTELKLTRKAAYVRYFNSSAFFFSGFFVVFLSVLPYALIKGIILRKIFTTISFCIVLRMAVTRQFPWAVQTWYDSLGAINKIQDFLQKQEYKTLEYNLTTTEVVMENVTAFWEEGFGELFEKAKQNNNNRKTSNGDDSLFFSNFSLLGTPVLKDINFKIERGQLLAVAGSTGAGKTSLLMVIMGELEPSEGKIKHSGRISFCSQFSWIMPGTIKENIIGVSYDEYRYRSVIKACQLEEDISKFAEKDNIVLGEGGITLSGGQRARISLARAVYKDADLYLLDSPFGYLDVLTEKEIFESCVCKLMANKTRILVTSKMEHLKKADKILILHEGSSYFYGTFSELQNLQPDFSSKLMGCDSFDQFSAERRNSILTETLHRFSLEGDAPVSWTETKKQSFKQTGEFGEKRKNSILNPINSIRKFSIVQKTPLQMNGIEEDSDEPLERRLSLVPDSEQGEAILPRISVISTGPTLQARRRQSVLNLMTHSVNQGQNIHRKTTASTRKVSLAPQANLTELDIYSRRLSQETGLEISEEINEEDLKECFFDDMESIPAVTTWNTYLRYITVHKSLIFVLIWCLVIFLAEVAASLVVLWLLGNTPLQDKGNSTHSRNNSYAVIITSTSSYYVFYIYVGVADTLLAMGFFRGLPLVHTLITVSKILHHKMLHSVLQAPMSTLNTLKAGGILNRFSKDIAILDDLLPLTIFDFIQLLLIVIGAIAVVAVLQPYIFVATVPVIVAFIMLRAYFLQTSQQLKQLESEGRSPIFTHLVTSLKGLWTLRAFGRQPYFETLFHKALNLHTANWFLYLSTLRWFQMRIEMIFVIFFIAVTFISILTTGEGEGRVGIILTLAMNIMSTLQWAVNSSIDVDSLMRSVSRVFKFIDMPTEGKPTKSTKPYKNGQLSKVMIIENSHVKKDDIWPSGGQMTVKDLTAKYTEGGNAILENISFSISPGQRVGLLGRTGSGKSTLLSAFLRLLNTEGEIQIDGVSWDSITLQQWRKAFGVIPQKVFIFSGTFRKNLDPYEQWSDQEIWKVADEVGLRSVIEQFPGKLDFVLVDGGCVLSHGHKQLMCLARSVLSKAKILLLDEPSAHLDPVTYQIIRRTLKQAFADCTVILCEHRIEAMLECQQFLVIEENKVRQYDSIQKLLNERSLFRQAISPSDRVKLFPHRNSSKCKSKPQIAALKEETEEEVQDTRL

`COc1ncc(C2CCC2)cc1CO[C@H]1[C@H](C(C)(C)C)[C@@H](C(=O)O)N(C(=O)C2CCOCC2)[C@H]1c1cccnc1OC(C)C` [Example 134, (2S,3R,4S,5S)-3-tert-butyl-4-[(5-cyclobutyl-2-methoxypyridin-3-yl)methoxy]-1-(oxane-4-carbonyl)-5-{2-[(propan-2-yl)oxy]pyridin-3-yl}pyrrolidine-2-carboxylic acid]: the “Maximum % activity (with co-corrector)” value was “++ (≥150 and <350)”; the “Maximum % activity (without co-corrector)” value is “++ (≥100 and <200)”. Under setting [1], the negative-log EC50 (pEC50) was 5.00 to 6.00. Besides, under setting [2], the pEC50 is 5.00 to 6.00.
`COc1ncc(C2CCC2)cc1CO[C@H]1[C@H](C(C)(C)C)[C@@H](C(=O)O)N(C(=O)[C@@H]2CCCO2)[C@H]1c1ccccc1C(F)F` [Example 165, (2S,3R,4S,5S)-3-tert-butyl-4-[(5-cyclobutyl-2-methoxypyridin-3-yl)methoxy]-5-[2-(difluoromethyl)phenyl]-1-[(2S)-oxolane-2-carbonyl]pyrrolidine-2-carboxylic acid]: the “Maximum % activity (with co-corrector)” value is on record as “+++ (≥350)”; the “Maximum % activity (without co-corrector)” value was “++ (≥100 and <200)”. For the same compound, the negative logarithm of the EC50 (pEC50) under setting [1] was 5.00 to 6.00. In addition, the pEC50 under setting [2] is 5.00 to 6.00.
Take `COc1ncc(C(F)(F)F)cc1CO[C@H]1[C@H](C(C)(C)C)[C@@H](C(=O)O)N(C(=O)[C@H]2CCCO2)[C@H]1c1ccccc1C(C)C` [Example 102, (2S,3R,4S,5S)-3-tert-butyl-4-{[2-methoxy-5-(trifluoromethyl)pyridin-3-yl]methoxy}-1-[(2R)-oxolane-2-carbonyl]-5-[2-(propan-2-yl)phenyl]pyrrolidine-2-carboxylic acid]: the “Maximum % activity (with co-corrector)” value is “++ (≥150 and <350)”; the “Maximum % activity (without co-corrector)” value is recorded as “+ (<100)”. The negative logarithm of the EC50 (pEC50) under setting [1] was 5.00 to 6.00. The negative logarithm of the EC50 (pEC50) under setting [2] is 5.00 to 6.00.
On to `COc1ncc(C(F)(F)F)cc1CO[C@H]1[C@H](C(C)(C)C)[C@@H](C(=O)O)N(C(=O)[C@@H]2CCCC[C@H]2C(F)(F)F)[C@H]1c1cccnc1OC(C)C` (single isomer, unassigned) [Example 282], for which the “Maximum % activity (with co-corrector)” value was “+++ (≥350)” and the “Maximum % activity (without co-corrector)” value is recorded as “+ (<100)”. In addition, the negative-log EC50 (pEC50) under setting [1] was > 6.00. Also, the negative logarithm of the EC50 (pEC50) under setting [2] is > 6.00.
For the compound `COc1nc2c(C)ccc(C)c2cc1CO[C@H]1[C@H](C(C)(C)C)[C@@H](C(=O)O)N(C(=O)C2CCCCC2)[C@H]1c1cccnc1OC(C)C` [Example 248, (2S,3R,4S,5S)-3-tert-butyl-1-(cyclohexanecarbonyl)-4-[(2-methoxy-5,8-dimethylquinolin-3-yl)methoxy]-5-{2-[(propan-2-yl)oxy]pyridin-3-yl}pyrrolidine-2-carboxylic acid], the “Maximum % activity (with co-corrector)” value is recorded as “+++ (≥350)” and the “Maximum % activity (without co-corrector)” value is “+++ (≥200)”. For the same compound, under setting [1], the pEC50 is 5.00 to 6.00. The pEC50 under setting [2] was 5.00 to 6.00.
As to `COc1ccc(C(F)(F)F)cc1CO[C@H]1[C@H](C(C)(C)C)[C@@H](C(=O)NS(=O)(=O)C2CC2)N(C(=O)C2CCCCC2)[C@H]1c1ccccc1` [Example 23, (2S,3R,4S,5S)-3-tert-butyl-1-(cyclohexanecarbonyl)-N-(cyclopropanesulfonyl)-4-{[2-methoxy-5-(trifluoromethyl)phenyl]methoxy}-5-phenylpyrrolidine-2-carboxamide], the “Maximum % activity (with co-corrector)” value is “++ (≥150 and <350)”; the “Maximum % activity (without co-corrector)” value is recorded as “+ (<100)”. Also, the pEC50 under setting [1] is < 5.00. Besides, under setting [2], the pEC50 is 5.00 to 6.00.
For `COc1ccc(OC(F)(F)F)cc1CO[C@H]1[C@H](C(C)(C)C)[C@@H](C(=O)O)N(C(=O)[C@@H]2CCCCO2)[C@H]1c1ccccc1C` [Example 224, (2S,3R,4S,5S)-3-tert-butyl-4-{[2-methoxy-5-(trifluoromethoxy)phenyl]methoxy}-5-(2-methylphenyl)-1-[(2S)-oxane-2-carbonyl]pyrrolidine-2-carboxylic acid], the “Maximum % activity (with co-corrector)” value was “+++ (≥350)” and the “Maximum % activity (without co-corrector)” value is recorded as “+++ (≥200)”. Further, the pEC50 under setting [1] was > 6.00. Further, under setting [2], the pEC50 was > 6.00.
`COc1ccc(C(F)(F)F)cc1COC1[C@@H](c2ccccc2OC)N(C(=O)C2CCCCC2)[C@@H](C(=O)O)[C@@H]1C(C)(C)C` (mixture of isomers) [Example 13, rac-(2R,3S,5R)-3-tert-butyl-1-(cyclohexanecarbonyl)-5-(2-methoxyphenyl)-4-{[2-methoxy-5-(trifluoromethyl)phenyl]methoxy}pyrrolidine-2-carboxylic acid]: the “Maximum % activity (with co-corrector)” value is recorded as “+++ (≥350)” and the “Maximum % activity (without co-corrector)” value is listed as “+ (<100)”. Also, the negative logarithm of the EC50 (pEC50) under setting [1] was 5.00 to 6.00. Besides, the pEC50 under setting [2] is 5.00 to 6.00.
Take `COc1ncc(C(F)(F)F)cc1CO[C@H]1[C@H](C(C)(C)C)[C@@H](C(=O)O)N(C(=O)C2CCCCC2)[C@H]1c1ccccc1` [Example 41, (2S,3R,4S,5S)-3-tert-butyl-1-(cyclohexanecarbonyl)-4-{[2-methoxy-5-(trifluoromethyl)pyridin-3-yl]methoxy}-5-phenylpyrrolidine-2-carboxylic acid]: the “Maximum % activity (with co-corrector)” value is reported as “+++ (≥350)”; the “Maximum % activity (without co-corrector)” value is “++ (≥100 and <200)”. Besides, the pEC50 under setting [1] was > 6.00. Besides, under setting [2], the pEC50 was > 6.00.
As for `COc1nc2cc(C)cc(C)c2cc1CO[C@H]1[C@H](C(C)(C)C)[C@@H](C(=O)O)N(C(=O)OC(C)C)[C@H]1c1cccnc1OC(C)C` [Example 253, (2S,3R,4S,5S)-3-tert-butyl-4-[(2-methoxy-5,7-dimethylquinolin-3-yl)methoxy]-1-{[(propan-2-yl)oxy]carbonyl}-5-{2-[(propan-2-yl)oxy]pyridin-3-yl}pyrrolidine-2-carboxylic acid], the “Maximum % activity (with co-corrector)” value is listed as “+++ (≥350)” and the “Maximum % activity (without co-corrector)” value is “+++ (≥200)”. Also, under setting [1], the pEC50 is 5.00 to 6.00. Further, the pEC50 under setting [2] was 5.00 to 6.00.
Consider `COc1ncc(C(F)(F)F)cc1CO[C@H]1[C@H](C(C)(C)C)[C@@H](C(=O)O)N(C(=O)[C@@H]2CCCCO2)[C@H]1c1ccccc1-c1ccc(OC(F)(F)F)cc1` [Example 206, (2S,3R,4S,5S)-3-tert-butyl-4-{[2-methoxy-5-(trifluoromethyl)pyridin-3-yl]methoxy}-1-[(2S)-oxane-2-carbonyl]-5-[4′-(trifluoromethoxy) [1,1′-biphenyl]-2-yl]pyrrolidine-2-carboxylic acid], for which the “Maximum % activity (with co-corrector)” value is on record as “+++ (≥350)” and the “Maximum % activity (without co-corrector)” value is listed as “+++ (≥200)”. In addition, under setting [1], the pEC50 is 5.00 to 6.00. Moreover, the negative logarithm of the EC50 (pEC50) under setting [2] was 5.00 to 6.00.
As for `COc1ccc(C(C)(C)C)cc1CO[C@H]1[C@H](C(C)(C)C)[C@@H](C(=O)O)N(C(=O)OC(C)C)[C@H]1c1cccnc1OC(C)C` [Example 245, (2S,3R,4S,5S)-3-tert-butyl-4-[(5-tert-butyl-2-methoxyphenyl)methoxy]-1-{[(propan-2-yl)oxy]carbonyl}-5-{2-[(propan-2-yl)oxy]pyridin-3-yl}pyrrolidine-2-carboxylic acid], the “Maximum % activity (with co-corrector)” value is recorded as “+++ (≥350)” and the “Maximum % activity (without co-corrector)” value is “+++ (≥200)”. In addition, under setting [1], the pEC50 is 5.00 to 6.00. Further, the negative-log EC50 (pEC50) under setting [2] was 5.00 to 6.00.
